These results are taken from US20120129811A1, “TRICYCLIC INHIBITORS OF PRO-MATRIX METALLOPROTEINASE ACTIVATION” (priority 2010, published 2012).

Counter-ions that a name gives are not always drawn. A value given as a limit tells only on which side of the number the result lay.

Assay [1] has as its target T1, proMMP9(20-445;ΔFnII) (SEQ ID NO:6) (Homo sapiens, UniProt P14780, DEL216-390).
T1 construct: start methionine (N); made in house; host or cells: E. coli BL21(DE3) RIL
T1 sequence (P14780 with tags, fused parts or gaps DEL216-390): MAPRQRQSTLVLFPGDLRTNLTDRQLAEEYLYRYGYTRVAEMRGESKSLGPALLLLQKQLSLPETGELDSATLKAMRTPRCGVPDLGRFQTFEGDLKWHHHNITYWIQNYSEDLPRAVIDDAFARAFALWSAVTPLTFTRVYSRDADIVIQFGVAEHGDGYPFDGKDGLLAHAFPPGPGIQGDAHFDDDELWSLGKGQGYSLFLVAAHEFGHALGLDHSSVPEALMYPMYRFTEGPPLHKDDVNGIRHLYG
In words: ThermoFluor binding assay with proMMP9(20-445;ΔFnII). The method, then: (§1) The ThermoFluor® (TF) assay is a 384-well plate-based binding assay that measures thermal stability of proteins (Biomol Screen 2001, 6, 429-40; Biochemistry 2005, 44, 5258-66). The experiments were carried out using instruments available from Johnson & Johnson Pharmaceutical Research & Development, LLC. TF dye used in all experiments was […] (1,8-ANS) (Invitrogen: A-47).
(§2) Compounds were arranged in a pre-dispensed plate (Greiner Bio-one: 781280), wherein compounds were serially diluted in 100% DMSO across 11 columns within a series. Columns 12 and 24 were used as DMSO reference and contained no compound. For multiple compound concentration-response experiments, the compound aliquots (50 nL) were robotically predispensed directly into black 384-well polypropylene PCR microplates (Abgene: TF-0384/k) using a Cartesian Hummingbird liquid handler (DigiLab, Holliston, Mass.). Following compound dispense, protein and dye solutions were added to achieve the final assay volume of 3 μL. The assay solutions were overlayed with 1 μL of silicone oil (Fluka, type DC 200: 85411) to prevent evaporation.
(§3) Assay plates were robotically loaded onto a thermostatically controlled PCR-type thermal block and then heated from 40 to 90° C. at a ramp-rate of 1° C./min for all experiments. Fluorescence was measured by continuous illumination with UV light (Hamamatsu LC6) supplied via fiber optics and filtered through a band-pass filter (380-400 nm; >60D cutoff). Fluorescence emission of the entire 384-well plate was detected by measuring light intensity using a CCD camera (Sensys, Roper Scientific) filtered to detect 500±25 nm, resulting in simultaneous and independent readings of all 384 wells. A single image with 20-sec exposure time was collected at each temperature, and the sum of the pixel intensity in a given area of the assay plate was recorded vs temperature and fit to standard equations to yield the Tm (J Biomol Screen 2001, 6, 429-40).
(§4) Thermodynamic parameters necessary for fitting compound binding for each proMMP were estimated by differential scanning calorimetry (DSC) and from ThermoFluor® data. The heat capacity of unfolding for each protein was estimated from the molecular weight and from ThermoFluor® dosing data.
ThermoFluor® with proMMP9(20-445; ΔFnII (SEQ ID NO:6)
The protein sample preparations included a desalting buffer exchange step via a PD-10 gravity column (GE Healthcare). The desalting buffer exchange was performed prior to diluting the protein to the final assay concentration of 2.8 μM proMMP9(20-445;ΔFnII) (SEQ ID NO:6). The concentration of proMMP9(20-445;ΔFnII) (SEQ ID NO:6) was determined spectrophotometrically based on a calculated extinction coefficient of ε280=39880 M^−1 cm^−1, a calculated molecular weight of 28.2 kDa, and calculated pI of 5.5. ThermoFluor® reference conditions were define as follows: 80 μg/mL (2.8 μM) proMMP9(20-445;ΔFnII) (SEQ ID NO:6), 50 μM 1,8-ANS, pH 7.0 Buffer (50 mM HEPES pH 7.0, 100 mM NaCl, 0.001% Tween-20, 2.5 mM MgCl2, 300 μM CaCl2). The thermodynamic parameters for proMMP9(20-445;ΔFnII) (SEQ ID NO:6) are as follows: Tm (° C.)=72 (+/−0.1), ΔUH(Tm) (cal mol^−1)=160000(+/−5000), ΔUSTm (cal mol^−1 K^−1)=434, ΔUCp (cal mol^−1 K^−1)=2400.
For orientation: Differential scanning fluorimetry follows unfolding on heating by fluorescence.

Assay [2] has as its target T2, full-length proMMP9(1-707) activation by catalytic MMP3 (Homo sapiens, UniProt P14780, R574P).
T2 construct: made in house; host or cells: proMMP9: HEK293 (secreted); MMP3: E. coli
As to the kind of experiment: proMMP9/MMP3 P126 Activation Assay. The format is biochemical. The method, then:
proMMP9/MMP3 P126 Activation Assay
The reaction volume was 50 μL. […] Reactivity of residual MMP3 towards P-126 substrate was minimal under these conditions.

Assay [3] has as its target T3, proMMP9(67-444;ΔFnII) (SEQ ID NO:5) (Homo sapiens, UniProt P14780, DEL216-390).
T3 construct: start methionine (N); made in house; host or cells: E. coli BL21(DE3) RIL
T3 sequence (P14780 with tags, fused parts or gaps DEL216-390): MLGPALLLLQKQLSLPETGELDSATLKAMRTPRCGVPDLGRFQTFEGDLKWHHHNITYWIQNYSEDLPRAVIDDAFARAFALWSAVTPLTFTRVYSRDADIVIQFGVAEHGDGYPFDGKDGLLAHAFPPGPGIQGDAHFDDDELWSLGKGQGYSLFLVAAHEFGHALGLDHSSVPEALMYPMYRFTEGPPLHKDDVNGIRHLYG
In words: ThermoFluor binding assay with proMMP9(67-444;ΔFnII). The method, then: as §1, §2, §3, §4
ThermoFluor® with proMMP9(67-444;ΔFnM (SEQ ID NO:5)
The protein sample preparations had to include a desalting buffer exchange step via a PD-10 gravity column (GE Healthcare). The desalting buffer exchange was performed prior to diluting the protein to the final assay concentration of 3.5 μM proMMP9(67-444;ΔFnII) (SEQ ID NO:5). The concentration of proMMP9(67-444;ΔFnII) (SEQ ID NO:5) was determined spectrophotometrically based on a calculated extinction coefficient of ε280=33900 M^−1 cm^−1, a calculated molecular weight of 22.6 kDa, and calculated pI of 5.20. ThermoFluor® reference conditions were defined as follows: 80 μg/mL (3.5 μM) proMMP9(67-444;ΔFnII) (SEQ ID NO:5), 50 μM 1,8-ANS, pH 7.0 Buffer (50 mM HEPES pH 7.0, 100 mM NaCl, 0.001% Tween-20, 2.5 mM MgCl2, 300 μM CaCl2). The thermodynamic parameters for proMMP9(67-444;ΔFnII) (SEQ ID NO:5) are as follows: Tm (° C.)=63 (+/−0.1), ΔUH(Tm)(cal mol^−1)=105000(+/−5000), ΔUS(Tm) (cal mol^−1 K^−1)=450, ΔUCp (cal mol^−1 K^−1)=2000.

T2 sequence (P14780 20-707 R574P): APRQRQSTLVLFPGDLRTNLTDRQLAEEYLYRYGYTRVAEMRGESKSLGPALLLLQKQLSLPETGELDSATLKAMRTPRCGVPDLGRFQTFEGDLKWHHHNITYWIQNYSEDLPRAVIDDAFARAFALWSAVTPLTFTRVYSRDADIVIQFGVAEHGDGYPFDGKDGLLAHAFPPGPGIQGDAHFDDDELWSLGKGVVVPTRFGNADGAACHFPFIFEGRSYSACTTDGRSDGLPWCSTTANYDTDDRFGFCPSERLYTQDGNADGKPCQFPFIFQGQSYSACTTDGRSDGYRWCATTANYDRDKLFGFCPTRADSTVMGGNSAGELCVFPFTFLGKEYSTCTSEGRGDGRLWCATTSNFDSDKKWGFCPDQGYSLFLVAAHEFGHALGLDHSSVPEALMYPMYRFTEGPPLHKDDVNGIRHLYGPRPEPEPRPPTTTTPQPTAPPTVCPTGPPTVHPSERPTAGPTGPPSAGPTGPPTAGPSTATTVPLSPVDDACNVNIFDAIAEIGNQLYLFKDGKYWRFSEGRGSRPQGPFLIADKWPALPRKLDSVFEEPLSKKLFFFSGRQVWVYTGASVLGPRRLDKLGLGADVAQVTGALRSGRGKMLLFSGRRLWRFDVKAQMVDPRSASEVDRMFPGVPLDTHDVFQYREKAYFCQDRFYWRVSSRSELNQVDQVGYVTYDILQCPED

For orientation: Kd means the concentration at which binding is half-saturated. A higher Kd goes with a looser complex. One may read the IC50 as the concentration needed to halve the response being measured. Read a high IC50 as lower potency. For `Cc1nc2ccc3sc(Nc4cc(S(N)(=O)=O)ccc4OC(C)C)nc3c2n1CC(F)(F)F` [Example 136, 4-Isopropoxy-3-[7-methyl-8-(2,2,2-trifluoro-ethyl)-8H-imidazo[4′,5′:3,4]benzo[2,1-d]thiazol-2-ylamino]-benzenesulfonamide.TFA], the Kd in assay [1] came out at 770 nM; in assay [3], 590 nM. In assay [2], this molecule gave a half-maximal inhibitory concentration (IC50) of 1100 nM.
For `Cn1cnc2c3nc(Nc4cc(S(N)(=O)=O)ccc4OC(F)(F)F)sc3ccc21` [Example 64, 3-(6-Methyl-6H-imidazo[4′,5′:3,4]benzo[2,1-d]thiazol-2-ylamino)-4-trifluoromethoxy-benzenesulfonamide.HCl], the Kd in assay [1] is 970 nM; in assay [3], 900 nM. In assay [2], this molecule returned an IC50 of 150 nM.
For `CCn1ncc2c3nc(Nc4cc(S(C)(=O)=O)ccc4OC)sc3ccc21` [Example 106, (6-Ethyl-6H-3-thia-1,6,7-triaza-as-indacen-2-yl)-(5-methanesulfonyl-2-methoxy-phenyl)-amine.TFA] the same measures were 600 nM, 530 nM and 190 nM.
The matching figures for `COc1ccccc1Nc1nc2c(ccc3c2cnn3C)s1` [Example 94, (2-Methoxy-phenyl)-(6-methyl-6H-3-thia-1,6,7-triaza-as-indacen-2-yl)-amine.TFA]: 15000 nM, 9200 nM and 510 nM.
For `COc1ccc(NC(C)=O)cc1Nc1nc2c(ccc3c2ncn3C)s1` [Example 49, N-[4-Methoxy-3-(6-methyl-6H-imidazo[4′,5′:3,4]benzo[2,1-d]thiazol-2-ylamino)-phenyl]-acetamide.HCl], the results for the Kd in assay [1] and in assay [3] were 4600 nM and 1600 nM, respectively. Also, the IC50 in assay [2] amounted to 1300 nM.
The matching figures for `CCn1c(C)nc2ccc3sc(Nc4cc(S(C)(=O)=O)ccc4OC(C)C)nc3c21` [Example 143, (8-Ethyl-7-methyl-8H-imidazo[4′,5′:3,4]benzo[2,1-d]thiazol-2-yl)-(2-isopropoxy-5-methanesulfonyl-phenyl)-amine.TFA]: 1200 nM, 260 nM and 160 nM.
For `Cc1nc2ccc3sc(Nc4cc(S(C)(=O)=O)ccc4OC(C)C)nc3c2n1C` [Example 144, (7,8-Dimethyl-8H-imidazo[4′,5′:3,4]benzo[2,1-d]thiazol-2-yl)-(2-isopropoxy-5-methanesulfonyl-phenyl)-amine.TFA] the same measures were 880 nM, 660 nM and 260 nM.
As for `COc1ccc(S(C)(=O)=O)cc1Nc1nc2c(ccc3ncn(C)c32)s1` [Example 135, (5-Methanesulfonyl-2-methoxy-phenyl)-(8-methyl-8H-imidazo[4′,5′:3,4]benzo[2,1-d]thiazol-2-yl)-amine.TFA], the Kd was greater than 95000 nM in assay [1] and 640 nM in assay [3]. In assay [2], this molecule yielded an IC50 of 270 nM.
In the case of `COc1ncccc1Nc1nc2c(ccc3c2ncn3C)s1` [Example 74, (2-Methoxy-pyridin-3-yl)-(6-methyl-6H-imidazo[4′,5′:3,4]-benzo[2,1-d]thiazol-2-yl)-amine.HCl], the Kd in assay [1] came out at 6000 nM; in assay [3], 3700 nM. Half-maximal inhibition in assay [2] (IC50) was put at 4700 nM.
For `Cn1cnc2c3nc(Nc4ccc(C#N)cc4OC(F)(F)F)sc3ccc21` [Example 86, 4-(6-Methyl-6H-imidazo[4′,5′:3,4]benzo[2,1-d]thiazol-2-ylamino)-3-trifluoromethoxy-benzonitrile.HCl] the same measures were greater than 95000 nM, 680 nM and 650 nM.
For `COc1ccncc1Nc1nc2c(ccc3nc(C)n(CC(F)(F)F)c32)s1` [Example 148, (4-Methoxy-pyridin-3-yl)-[7-methyl-8-(2,2,2-trifluoro-ethyl)-8H-imidazo[4′,5′:3,4]benzo[2,1-d]thiazol-2-yl]-amine.TFA] the same measures were 860 nM, 290 nM and 220 nM.
For `CCOc1ccncc1Nc1nc2c(ccc3nc(C)n(CC)c32)s1` [Example 155, N-(4-Ethoxypyridin-3-yl)-8-ethyl-7-methyl-8H-imidazo[4′,5′:5,6]benzo[1,2-d]thiazol-2-amine.TFA] the same measures were 720 nM, 140 nM and 150 nM.
On to `NC(=O)c1ccc(OC(F)(F)F)c(Nc2nc3c(ccc4cnccc43)s2)c1` [Example 114, 3-(Thiazolo[4,5-f]isoquinolin-2-ylamino)-4-trifluoromethoxy-benzamide.TFA], for which the Kd in assay [1] was 1200 nM; in assay [3], 4600 nM. For the same molecule, the IC50 in assay [2] is roughly 2200 nM.
As to `COc1ccc(C(F)(F)F)cc1Nc1nc2c(ccc3c2ncn3C)s1` [Example 50, (2-Methoxy-5-trifluoromethyl-phenyl)-(6-methyl-6H-imidazo[4′,5′: 3,4]benzo[2,1-d]thiazol-2-yl)-amine.HCl], the Kd in assay [1] came out at 3000 nM; in assay [3] it was 1500 nM. In assay [2], this molecule returned a concentration for half-maximal inhibition (IC50) of 1100 nM.
Regarding `COc1ccc(N)cc1Nc1nc2c(ccc3c2ncn3C)s1` [Example 79, 4-Methoxy-N^3-(6-methyl-6H-imidazo[4′,5′:3,4]-benzo[2,1-d]thiazol-2-yl)-benzene-1,3-diamine.HCl], the Kd in assay [1] was found to be 3200 nM; in assay [3], 930 nM. In assay [2], the half-maximal inhibitory concentration (IC50) worked out at 390 nM.
For `COc1ccc(F)cc1Nc1nc2c(ccc3nc(C)n(C)c32)s1` [Example 125, (7,8-Dimethyl-8H-imidazo[4′,5′:3,4]benzo[2,1-d]thiazol-2-yl)-(5-fluoro-2-methoxy-phenyl)-amine.TFA] the same measures were 3100 nM, 600 nM and 260 nM.
